US12116358B2, “Substituted indoles and methods of use thereof” (EPIZYME, INC., priority 2018, dated 2024)
Read-outs that look alike come from different tables or passages of the source.

Legend:
[1] = target: T1, SETD2(1434-1711) (Homo sapiens, UniProt Q9BYW2); assay: SETD2 (1434-1711) assay; format: biochemical; details: read-out: SETD2 (1434-1711)
T1 construct: SETD2 (1434-1711) Assay; catalogue N/A
T1 sequence (Q9BYW2 1434-1711): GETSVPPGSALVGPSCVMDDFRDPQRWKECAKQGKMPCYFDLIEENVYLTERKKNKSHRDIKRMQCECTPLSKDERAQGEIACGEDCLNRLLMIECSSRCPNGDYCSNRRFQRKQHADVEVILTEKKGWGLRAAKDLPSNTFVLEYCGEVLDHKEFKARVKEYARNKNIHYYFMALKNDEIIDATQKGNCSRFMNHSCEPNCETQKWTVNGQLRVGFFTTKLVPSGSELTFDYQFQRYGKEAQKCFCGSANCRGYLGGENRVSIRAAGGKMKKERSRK

[2] = tested on: H3K36me3 in A549 cells; assay: In-Cell Western (ICW) assay of SETD2 inhibitors (A549 assay); format: cell-based, human; details: A549 cells, read-out: SETD2 A549
Summary of the method: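 A549 cells seeded at 4,000/well onto compound and incubated 3 days at 37° C. Methanol-fixed cells stained overnight at 4° C with anti-H3K36me3 (1:1000), then IRDye 800CW secondary with DRAQ5 DNA counterstain. Plates read by Licor imaging at 700 and 800 channels.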

Compound | IC50 [1] | IC50 ([2]; Homo sapiens) | IC50 [2]
Cc1ccc(F)c2cc(C(=O)N[C@@H]3CCC[C@@H](N4CCn5c(nnc5C(F)(F)F)C4)C3)[nH]c12 [compound 990] | 3200 nM | > 2000 nM | –
Cc1ccc(F)c2cc(C(=O)Nc3cccc(N4CCN(C(C)c5ccccc5)CC4)c3)[nH]c12 (stereo not drawn) [compound 417] | 900 nM | – | 3400 nM
Cc1cccc2cc(C(=O)N[C@H]3CC[C@H](NC(=O)CCN4CCCCC4)CC3)[nH]c12 [compound 587] | 37400 nM | > 25000 nM | –
Cc1cccc2cc(C(=O)Nc3cnc4nccn4c3)[nH]c12 [compound 484] | 7600 nM | – | 10600 nM
Cc1ccc(F)c2cc(C(=O)Nc3cccc(-c4ncn5ccccc45)c3)[nH]c12 [compound 299] | 200 nM | 1100 nM | –
Cc1ccc(F)c2cc(C(=O)N[C@@H]3CCC[C@H](N4CCN5C(=O)COCC5C4)C3)[nH]c12 (stereo partly drawn) [compound 1045] | 8 nM | 30 nM | –
Cc1ccc(F)c2cc(C(=O)N[C@@H]3CCC[C@H](N4CCn5cncc5C4)C3)[nH]c12 [compound 991] | 60 nM | 300 nM | –
Cc1ccc(F)c2cc(C(=O)Nc3cccc(S(N)(=O)=O)c3)[nH]c12 [compound 454] | 2800 nM | 5900 nM | –
Cc1ccc(F)c2cc(C(=O)Nc3cccc(OCCN(C)C)c3)[nH]c12 [compound 323] | 70 nM | 1500 nM | –
Cc1cccc2cc(C(=O)Nc3ccc4nc(CN5CCNCC5)ncc4c3)[nH]c12 [compound 541] | 2000 nM | – | > 25000 nM
Cc1ccc(F)c2cc(C(=O)N[C@@H]3CCC[C@H](N4CCn5c(n[nH]c5=O)C4)C3)[nH]c12 [compound 1058] | 40 nM | 600 nM | –
CCC(=O)N1CCN(C2CCCC(NC(=O)c3cc4c(F)ccc(C)c4[nH]3)C2)CC1C(F)(F)F (stereo not drawn) [compound 1167] | 20 nM | – | 60 nM
Cc1ccc(F)c2cc(C(=O)NC3CCCC(N4CCCN(S(C)(=O)=O)CC4)C3)[nH]c12 (stereo not drawn) [compound 982] | 1000 nM | – | > 2000 nM
Cc1ccc(F)c2cc(C(=O)Nc3cccc(N4CCOc5ccccc54)c3)[nH]c12 [compound 547] | 4000 nM | – | > 25000 nM
Cc1ccc(F)c2cc(C(=O)NC3CCCC(N4CCC(N(C)C(=O)C(C)(C)O)C4)C3)[nH]c12 (stereo not drawn) [compound 1052] | 20 nM | – | 50 nM
CCOC(=O)CC(NC(=O)c1cc2cccc(C)c2[nH]1)c1ccccc1 (stereo not drawn) [compound 586] | 36400 nM | > 25000 nM | –
Cc1cccc2cc(C(=O)Nc3ccc4nc(NC5CCNCC5)ncc4c3)[nH]c12 [compound 473] | 200 nM | – | 8800 nM
Cc1ccc(F)c2cc(C(=O)N[C@@H]3CCC[C@H](N4CCn5c(nn(C)c5=O)C4)C3)[nH]c12 [compound 1056] | 90 nM | 300 nM | –
Cc1ccc(F)c2cc(C(=O)NC3CCCC(N4CCN5C(=O)OCC5C4)C3)[nH]c12 (stereo not drawn) [compound 1136] | 700 nM | – | > 2000 nM
CC(=O)N1CCN([C@H]2CCC[C@@H](NC(=O)c3cc4c(F)ccc(C)c4[nH]3)C2)C[C@H]1C(F)(F)F [compound 1070] | 10 nM | 10 nM | –
Cc1ccc(F)c2cc(C(=O)NC3CCCC(N4CCC(N(C)C(=O)C(C)C)C4)C3)[nH]c12 (stereo not drawn) [compound 969] | 4 nM | – | 100 nM
Cc1cccc2cc(C(=O)NCc3ccccc3N3CCOCC3)[nH]c12 [compound 575] | > 18000 nM | > 25000 nM | –
CN[C@H]1CCN([C@@H]2CCC[C@@H](NC(=O)c3cc4c(F)ccc(C)c4[nH]3)C2)C1 [compound 1088] | 2200 nM | > 2000 nM | –
Cc1ccc(F)c2cc(C(=O)Nc3cccc(N4CCN(S(C)(=O)=O)CC4)c3)[nH]c12 [compound 176] | 100 nM | 300 nM | –
Cc1ccc(F)c2cc(C(=O)Nc3cccc(-c4ccc(CO)cc4)c3)[nH]c12 [compound 346] | 100 nM | – | 1800 nM
Cc1cccc2cc(C(=O)Nc3ccc4nccn4c3)[nH]c12 [compound 459] | 1500 nM | – | 6200 nM

Compound | IC50 [1] | IC50 ([2]; Homo sapiens) | IC50 [2]
CC(=O)N1CCC([C@H]2CCC[C@@H](NC(=O)c3cc4c(F)ccc(C)c4[nH]3)C2)CC1 [compound 1007] | 6 nM | 20 nM | –
Cc1ccc(F)c2cc(C(=O)NC3CCCC(N4CCN(C(=O)CO)C(C(F)(F)F)C4)C3)[nH]c12 (stereo not drawn) [compound 1174] | 4800 nM | – | > 2000 nM
Cc1ccc(F)c2cc(C(=O)Nc3cc(Cl)cc(N4CCN(C)CC4)c3)[nH]c12 [compound 91] | 10 nM | – | 200 nM
CC[C@H]1CN([C@H]2CCC[C@@H](NC(=O)c3cc4c(F)ccc(C)c4[nH]3)C2)CCN1C(C)=O [compound 1085] | 30 nM | 100 nM | –
Cc1ccc(F)c2cc(C(=O)Nc3cccc(N4CCN(C5CC5)C(=O)C4)c3)[nH]c12 [compound 100] | 30 nM | – | 200 nM
CC(=O)N1[C@H](C)CN(c2cccc(NC(=O)c3cc4c(F)ccc(C)c4[nH]3)c2)C[C@H]1C [compound 214] | 100 nM | – | 500 nM
Cc1ccc(F)c2cc(C(=O)Nc3cccc(-n4cnnc4)c3)[nH]c12 [compound 281] | 200 nM | 900 nM | –
Cc1ccc(F)c2cc(C(=O)Nc3cccc(C4CCOCC4)c3)[nH]c12 [compound 101] | 50 nM | – | 200 nM
CC(=O)N1C2CCC1CN(c1cccc(NC(=O)c3cc4c(F)ccc(C)c4[nH]3)c1)C2 [compound 163] | 30 nM | – | 300 nM
Cc1ccc(F)c2cc(C(=O)N[C@@H]3CCC[C@H](N4CCN5C(=O)CCC[C@@H]5C4)C3)[nH]c12 [compound 1044] | 20 nM | 20 nM | –
Cc1ccc(F)c2cc(C(=O)Nc3cccc(N4CC5CCN(C)C5C4)c3)[nH]c12 (stereo not drawn) [compound 245] | 10 nM | – | 600 nM
CC(=O)N1CCC(C(N)=O)(c2cc(F)cc(NC(=O)c3cc4c(F)ccc(C)c4[nH]3)c2)CC1 [compound 267] | 10 nM | 700 nM | –
Cc1ccc(F)c2cc(C(=O)Nc3cccc(-c4cnn(CCO)c4)c3)[nH]c12 [compound 219] | 60 nM | – | 500 nM
Cc1ccc(F)c2cc(C(=O)Nc3cccc(S(C)(=O)=O)c3)[nH]c12 [compound 399] | 1800 nM | – | 2400 nM
Cc1cccnc1C(CCC(=O)N(C)C)NC(=O)c1cc2cccc(C)c2[nH]1 (stereo not drawn) [compound 446] | 6300 nM | 5400 nM | –
CC(=O)N1CCN(C2COCC(NC(=O)c3cc4c(F)ccc(C)c4[nH]3)C2)CC1 (stereo not drawn) [compound 988] | 4100 nM | – | > 2000 nM
CC(=O)N1CCN(c2cc(NC(=O)c3cc4c(F)ccc(C)c4[nH]3)ccc2F)CC1 [compound 79] | 70 nM | – | 200 nM
Cc1ccc(F)c2cc(C(=O)Nc3cccc(N4CCC5C(CCN5C)C4)c3)[nH]c12 (stereo not drawn) [compound 172] | 20 nM | – | 300 nM
Cc1cccc2cc(C(=O)NC3CCN(C(=O)CCCN)C3)[nH]c12 (stereo not drawn) [compound 593] | > 50000 nM | > 25000 nM | –
CC(=O)N1CCN(C2CCCC(NC(=O)c3cc4c(F)ccc(C)c4[nH]3)C2)CC1C (stereo not drawn) [compound 968] | 1900 nM | – | > 2000 nM
Cc1ccc(F)c2cc(C(=O)N[C@@H]3CCC[C@@H](N4CCC(N5CCCC5=O)C4)C3)[nH]c12 (stereo partly drawn) [compound 911] | 1000 nM | > 2000 nM | –
CC(=O)N(CCO)C1CCN([C@@H]2CCC[C@@H](NC(=O)c3cc4c(F)ccc(C)c4[nH]3)C2)C1 (stereo partly drawn) [compound 873] | 1100 nM | > 2000 nM | –
Cc1cccc2cc(C(=O)NC3CCCCC3)[nH]c12 [compound 522] | 10600 nM | – | 20600 nM
Cc1nc([C@H]2CCC[C@@H](NC(=O)c3cc4c(F)ccc(C)c4[nH]3)C2)no1 [compound 1011] | 300 nM | 900 nM | –
Cc1ccc(F)c2cc(C(=O)Nc3cccc(N4CCOC(CCO)C4)c3)[nH]c12 (stereo not drawn) [compound 50] | 60 nM | – | 100 nM
